Results published in patent publication US11273217B2, “Cancer treatment composition combining anti-CD26 antibody and other anticancer agent” (Y's AC Co., Ltd., priority 2015, dated 2022).

What was measured:
H226 cells = test: MTT cell growth assay, H226; type: cell-based
Procedure: (§1) Gemcitabine was studied for its effect on the growth of a mesothelioma cell line. A mesothelioma cell line MESO1, JMN, H2452, or H226 (2×10^3 cells/well) was inoculated to a 96-well plate. One hour later, gemcitabine (10^−9, 10^−8, 10^−7, 10^−6, 10^−5, or 10^−4 M) was added thereto (N=6). 2 days later, MTT assay was conducted. Significant difference was tested by two-tailed t-test (vs Cont).
(§2) H226 cells (2×10^3 cells/well) were inoculated to a 96-well plate. One hour later, gemcitabine (0, 10^−8, 3×10^−8, or 10^−7 M) and YS110 (0, 1, 3, or 10 μg/ml) were added thereto in combination. At day 2, MTT assay was conducted. Significant difference was tested by two-tailed t-test (vs Cont). Next, interaction in concomitant use of medications was studied (n=6). The interaction between YS110 and gemcitabine used concomitantly was analyzed by two-way ANOVA.
(§3) MESO1, JMN, H2452 or H226 cells (2×10^3 cells/well were inoculated to a 96-well plate. One hour later, 3×10^−8 M or 10^−7 M gemcitabine was added thereto by concomitant use with the combination of cisplatin (0, 0.1, 0.3, or 1 μM) and pemetrexed (0, 0.03, 0.1, or 0.3 μM) (n=6). At day 2, MTT assay was conducted.
(§4) The growth inhibitory effect of gemcitabine (10^−9 to 10^−4 M) was compared using MESO1, H2452, JMN, and H226 cell lines.

MESO1 cells = test: MTT cell growth assay, MESO1; type: cell-based; details: 3×10^−8 M or 10^−7 M gemcitabine with cisplatin 0-1 μM and pemetrexed 0-0.3 μM; day 2
Procedure: (§5) MESO1 or H2452 cells (2×10^3 cells/well) were inoculated to a 96-well plate. One hour later, cisplatin or pemetrexed was added thereto at 10^−9, 10^−8, 10^−7, 10^−6, 10^−5, or 10^−4 M (n=6). At day 2, MTT assay was conducted.
MESO1 cells (2×10^3 cells/well) were inoculated to a 96-well plate. One hour later, the combination of 0.3, 3, or 10 μM cisplatin and 0.1, 3, or 10 μg/ml YS110, or the combination of 0.03, 0.3, or 1 μM pemetrexed and 0.1, 3, or 10 μg/ml YS110 was added thereto. At day 2, MTT assay was conducted. Significant difference was tested by two-tailed t-test (vs Cont).
(§6) MESO1 cells (2×10^3 cells/well) or H2452 cells (2×10^3 cells/well) were inoculated to a 96-well plate. One hour later, 0.3 μM cisplatin-0.1 μM pemetrexed combination, or YS110 (10 μg/ml) plus the 0.3 μM cisplatin-0.1 μM pemetrexed combination was added thereto (n=6). At day 2, MTT assay was conducted. Significant difference was tested by two-tailed t-test (vs Cont).
as §1
as §2, with “MESO1” for “H226”
as §3
(§7) The growth inhibitory effects of cisplatin (10^−9 to 10^−4 M) and pemetrexed (10^−9 to 10^−4 M) were compared using the MESO1 and JMN cell lines.
as §4

H226 = test: In vivo growth of epithelioid mesothelioma cell H226 in SCID mice (tumor weight); details: YS110 10 mg/kg, gemcitabine 20 mg/kg, intraperitoneal, days 2 and 4; day 7
Procedure: H226 (3.8×10^5 cells/animal) was subcutaneously transplanted to the backs of female SCID mice. The day of transplantation was defined as day 0. YS110 (10 mg/kg), gemcitabine (20 mg/kg), or YS110 (10 mg/kg)+gemcitabine (20 mg/kg) was intraperitoneally administered to the mice twice (days 2 and 4) (n=6). At day 7, their tumors were excised, and the tumor weights were measured. Significant difference was tested by two-tailed t-test (vs Cont). The interaction between YS110 and gemcitabine used concomitantly was analyzed by two-way ANOVA.

H2452 cells = test: MTT cell growth assay, H2452; type: cell-based; details: 3×10^−8 M or 10^−7 M gemcitabine with cisplatin 0-1 μM and pemetrexed 0-0.3 μM; day 2
Procedure: as §5
H2452 cells (2×10^3 cells/well) were inoculated to a 96-well plate. One hour later, the combination of 0.03, 0.3, or 1 μM cisplatin and 0.1, 3, or 10 μg/ml YS110, or the combination of 0.01, 0.1, or 0.3 μM pemetrexed and 0.1, 3, or 10 μg/ml YS110 was added thereto (n=6). At day 2, MTT assay was conducted. Significant difference was tested by two-tailed t-test (vs Cont).
as §6, §1
as §2, with “H2452” for “H226”
as §3, §4

JMN cells [1] = test: MTT cell growth assay, JMN; type: cell-based
Procedure: as §1
as §2, with “JMN” for “H226”, “3×10^−10, 10^−9,” for “10^−8, 3×10^−8,”, “3×10^−8” for “10^−7”
as §3, §7, §4

JMN cells [2] = test: In vivo JMN cell growth in SCID mice (tumor weight); details: YS110 10 mg/kg, gemcitabine 10 mg/kg, intraperitoneal, days 2 and 4; day 7
[3] = 3×10^−8 M or 10^−7 M gemcitabine with cisplatin 0-1 μM and pemetrexed 0-0.3 μM, day 2

Nc1ccn([C@@H]2O[C@H](CO)[C@@H](O)C2(F)F)c(=O)n1 [gemcitabine]
effect of gemcitabine on the growth inhibitory action of cisplatin-pemetrexed (H226 cells; [3]): did not potentiate
cell growth, gemcitabine dose-response compared among mesothelioma cell lines (in words) (H226 cells; 10^−9 to 10^−4 M, 2 days): more strongly suppressed the growth
growth inhibitory effect compared between H2452 and H226 (H226 cells; H2452 (CD9+) vs H226 (CD9−), 10^−9 to 10^−4 M): significantly stronger growth inhibitory effect on H226 than on H2452
effect of gemcitabine on the growth inhibitory action of cisplatin-pemetrexed (MESO1 cells): did not potentiate
inhibitory effect (tumor weight) (H226): 29%
effect of gemcitabine on the growth inhibitory action of cisplatin-pemetrexed (H2452 cells): did not potentiate
effect of gemcitabine on the growth inhibitory action of cisplatin-pemetrexed (JMN cells [1]; [3]): did not potentiate
cell growth, gemcitabine dose-response compared among mesothelioma cell lines (in words) (JMN cells [1]; 10^−9 to 10^−4 M, 2 days): more strongly suppressed the growth
growth inhibitory effect compared between MESO1 and JMN (JMN cells [1]; MESO1 (CD9+) vs JMN (CD9−), 10^−9 to 10^−4 M): significantly stronger growth inhibitory effect on JMN than on MESO1
inhibitory effect (tumor weight) (JMN cells [2]): 29%
